One test has as its system MCF7. The experiment in a line: Cytotoxicity against human MCF7 cells assessed as cell viability measured after 24 hrs by CCK-8 assay. Type of test: functional, cell-based. As to conditions: MCF7, 24 h.
In a further test the test system is MDA-MB-231. The experiment in a line: Cytotoxicity against human MDA-MB-231 cells assessed as cell viability measured after 24 hrs by CCK-8 assay. Type of test: functional, cell-based. As to conditions: MDA-MB-231, 24 h.
A further test relates to MX1. Kind of test: Cytotoxicity against human MX1 cells assessed as cell viability measured after 24 hrs by CCK-8 assay. The conditions noted are these: MX1, 24 h. Type of test: functional, cell-based.
Another test deals with B16-F10. Kind of test: Cytotoxicity against mouse B16-F10 cells assessed as cell viability after 24 hrs by CCK-8 assay. Type of test: functional, cell-based. As to conditions: B16-F10, 24 h. On the technique in general: Tetrazolium dyes change colour on reduction, which living cells bring about.
In test [1] the target is T1, Solute carrier family 2, facilitated glucose transporter member 1 (Homo sapiens) (UniProt P11166).
T1 sequence (whole entry): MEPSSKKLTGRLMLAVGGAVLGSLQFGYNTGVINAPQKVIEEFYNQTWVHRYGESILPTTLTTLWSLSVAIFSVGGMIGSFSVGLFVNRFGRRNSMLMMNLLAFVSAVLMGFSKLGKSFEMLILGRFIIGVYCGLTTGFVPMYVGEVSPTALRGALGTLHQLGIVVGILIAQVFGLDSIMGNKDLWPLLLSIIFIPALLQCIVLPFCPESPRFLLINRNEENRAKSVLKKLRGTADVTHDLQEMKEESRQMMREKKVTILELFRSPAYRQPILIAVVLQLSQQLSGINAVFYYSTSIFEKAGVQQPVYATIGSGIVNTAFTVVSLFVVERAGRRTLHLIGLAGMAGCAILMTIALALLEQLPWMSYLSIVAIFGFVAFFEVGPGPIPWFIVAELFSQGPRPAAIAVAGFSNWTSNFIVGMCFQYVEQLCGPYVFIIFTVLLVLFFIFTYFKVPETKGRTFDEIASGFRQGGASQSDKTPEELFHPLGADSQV
The experiment in a line: Binding affinity to GLUT1 (unknown origin) assessed as binding free energy.

In test [2] the target is T1, Solute carrier family 2, facilitated glucose transporter member 1 (Homo sapiens). Kind of test: Binding affinity to GLUT1 (unknown origin) membrane assessed as free energy.
Another test is filed under the species Homo sapiens. The experiment in a line: Binding affinity to membrane (unknown origin) assessed as binding free energy.

*1 amine or outer side, *2 acyl side, *3 side chain or, on linkers, in order; H or OH if unused. Where a SMILES comes first, the peptide text is derived from it. Side-chain parts run from the residue outwards. The star is where a group is joined. NH(CH2)3O(βDGlc) = OC[C@H]1O[C@@H](OCCCN*)[C@H](O)[C@@H](O)[C@@H]1O; Glutaryl = O=C(CCCC(=O)[*:2])[*:1]; Lauroyl = CCCCCCCCCCCC(=O)* A value given as a limit tells only on which side of the number the result lay.

One may read the IC50 as the concentration that inhibits the measured activity by half. On to “H-RWKIFKKIEKVGQNIRDGIVKAGPAVAVVGQAATI-NH2”, for which the IC50 in the test on MCF7, in the test with MDA-MB-231 and in the test with MX1 was below 8 µM in each case.

Regarding `CCCCCCCCCCCC(=O)N[C@@H](CCCNC(=N)N)C(=O)NCC(=O)N[C@@H](Cc1c[nH]c2ccccc12)C(=O)N[C@@H](Cc1ccccc1)C(=O)N[C@@H](CCCNC(=N)N)C(=O)N[C@@H](C)C(=O)N[C@@H](CCSC)C(=O)N[C@@H](CCCNC(=N)N)C(=O)N[C@@H](CO)C(=O)N[C@H](C(=O)N[C@@H](C)C(=O)N[C@@H](CCCNC(=N)N)C(=O)N[C@@H](Cc1ccccc1)C(=O)N[C@H](C(=O)N[C@@H](C)C(=O)N[C@@H](CCCNC(=N)N)C(=O)N[C@@H](CCC(=O)O)C(=O)N[C@@H](CCCNC(=N)N)C(=O)N[C@@H](CC(C)C)C(=O)N[C@@H](CCCCNC(=O)CCCC(=O)NCCCO[C@@H]1O[C@H](CO)[C@@H](O)[C@H](O)[C@H]1O)C(=O)N[C@@H](CCC(=O)O)C(=O)N[C@@H](Cc1cnc[nH]1)C(=O)N[C@@H](CC(C)C)C(N)=O)[C@@H](C)CC)[C@@H](C)CC` (Lauroyl-RGWFRAMRSIARFIARERLK([Glutaryl-NH(CH2)3O(βDGlc)])EHL-NH2), the IC50 in the test on B16-F10 was determined as 3.5 µM. Besides, the results for the deltaG (in test [1]; in test [2]; in the test filed under Homo sapiens) were -77.1 kcal/mol, -123 kcal/mol and -65.7 kcal/mol, respectively.

As to `CCCCCCCCCCCC(=O)N[C@@H](CCCNC(=N)N)C(=O)NCC(=O)N[C@@H](Cc1c[nH]c2ccccc12)C(=O)N[C@@H](Cc1ccccc1)C(=O)N[C@@H](CCCNC(=N)N)C(=O)N[C@@H](C)C(=O)N[C@@H](CCSC)C(=O)N[C@@H](CCCNC(=N)N)C(=O)N[C@@H](CO)C(=O)N[C@H](C(=O)N[C@@H](C)C(=O)N[C@@H](CCCNC(=N)N)C(=O)N[C@@H](Cc1ccccc1)C(=O)N[C@H](C(=O)N[C@@H](C)C(=O)N[C@@H](CCCNC(=N)N)C(=O)N[C@@H](CCC(=O)O)C(=O)N[C@@H](CCCCNC(=O)CCCC(=O)NCCCO[C@@H]1O[C@H](CO)[C@@H](O)[C@H](O)[C@H]1O)C(=O)N[C@@H](CC(C)C)C(=O)N[C@@H](CCCNC(=N)N)C(=O)N[C@@H](CCC(=O)O)C(=O)N[C@@H](Cc1cnc[nH]1)C(=O)N[C@@H](CC(C)C)C(N)=O)[C@@H](C)CC)[C@@H](C)CC` (Lauroyl-RGWFRAMRSIARFIAREK([Glutaryl-NH(CH2)3O(βDGlc)])LREHL-NH2), the IC50 in the test on B16-F10 worked out at 3.3 µM. The figures for the deltaG (in test [1]; in test [2]; in the test filed under Homo sapiens) were -60.1 kcal/mol, -72.8 kcal/mol and -66.8 kcal/mol, respectively.

With `CCCCCCCCCCCC(=O)N[C@@H](CCCCNC(=O)CCCC(=O)NCCCO[C@@H]1O[C@H](CO)[C@@H](O)[C@H](O)[C@H]1O)C(=O)NCC(=O)N[C@@H](Cc1c[nH]c2ccccc12)C(=O)N[C@@H](Cc1ccccc1)C(=O)N[C@@H](CCCNC(=N)N)C(=O)N[C@@H](C)C(=O)N[C@@H](CCSC)C(=O)N[C@@H](CCCNC(=N)N)C(=O)N[C@@H](CO)C(=O)N[C@H](C(=O)N[C@@H](C)C(=O)N[C@@H](CCCNC(=N)N)C(=O)N[C@@H](Cc1ccccc1)C(=O)N[C@H](C(=O)N[C@@H](C)C(=O)N[C@@H](CCCNC(=N)N)C(=O)N[C@@H](CCC(=O)O)C(=O)N[C@@H](CCCNC(=N)N)C(=O)N[C@@H](CC(C)C)C(=O)N[C@@H](CCCNC(=N)N)C(=O)N[C@@H](CCC(=O)O)C(=O)N[C@@H](Cc1cnc[nH]1)C(=O)N[C@@H](CC(C)C)C(N)=O)[C@@H](C)CC)[C@@H](C)CC` (Lauroyl-K([Glutaryl-NH(CH2)3O(βDGlc)])GWFRAMRSIARFIARERLREHL-NH2), the IC50 in the test on B16-F10 was 7.2 µM. In addition, the deltaG in test [1] is -61.7 kcal/mol; in test [2] it was -73.7 kcal/mol; in the test filed under Homo sapiens, -61.5 kcal/mol.

For `CCCCCCCCCCCC(=O)N[C@@H](CCCNC(=N)N)C(=O)NCC(=O)N[C@@H](Cc1c[nH]c2ccccc12)C(=O)N[C@@H](Cc1ccccc1)C(=O)N[C@@H](CCCCNC(=O)CCCC(=O)NCCCO[C@@H]1O[C@H](CO)[C@@H](O)[C@H](O)[C@H]1O)C(=O)N[C@@H](C)C(=O)N[C@@H](CCSC)C(=O)N[C@@H](CCCNC(=N)N)C(=O)N[C@@H](CO)C(=O)N[C@H](C(=O)N[C@@H](C)C(=O)N[C@@H](CCCNC(=N)N)C(=O)N[C@@H](Cc1ccccc1)C(=O)N[C@H](C(=O)N[C@@H](C)C(=O)N[C@@H](CCCNC(=N)N)C(=O)N[C@@H](CCC(=O)O)C(=O)N[C@@H](CCCNC(=N)N)C(=O)N[C@@H](CC(C)C)C(=O)N[C@@H](CCCNC(=N)N)C(=O)N[C@@H](CCC(=O)O)C(=O)N[C@@H](Cc1cnc[nH]1)C(=O)N[C@@H](CC(C)C)C(N)=O)[C@@H](C)CC)[C@@H](C)CC` (Lauroyl-RGWFK([Glutaryl-NH(CH2)3O(βDGlc)])AMRSIARFIARERLREHL-NH2), in the test with B16-F10, the IC50 was determined as 5.3 µM. Further, the deltaG is -64.3 kcal/mol in test [1], -64.1 kcal/mol in test [2] and -63.6 kcal/mol in the test listed under Homo sapiens.

In the case of `CCCCCCCCCCCCCCCC(=O)N[C@@H](CCCNC(=N)N)C(=O)N[C@@H](Cc1c[nH]c2ccccc12)C(=O)N[C@@H](CCCCN)C(=O)N[C@H](C(=O)N[C@@H](Cc1ccccc1)C(=O)N[C@@H](CCCCN)C(=O)N[C@@H](CCCCN)C(=O)N[C@H](C(=O)N[C@@H](CCC(=O)O)C(=O)N[C@@H](CCCCN)C(=O)N[C@H](C(=O)NCC(=O)N[C@@H](CCC(N)=O)C(=O)N[C@@H](CC(N)=O)C(=O)N[C@H](C(=O)N[C@@H](CCCNC(=N)N)C(=O)N[C@@H](CC(=O)O)C(=O)NCC(=O)N[C@H](C(=O)N[C@H](C(=O)N[C@@H](CCCCN)C(=O)N[C@@H](C)C(=O)NCC(=O)N1CCC[C@H]1C(=O)N[C@@H](C)C(=O)N[C@H](C(=O)N[C@@H](C)C(=O)N[C@H](C(=O)N[C@H](C(=O)NCC(=O)N[C@@H](CCC(N)=O)C(=O)N[C@@H](C)C(=O)N[C@@H](C)C(=O)N[C@H](C(=O)N[C@H](C(N)=O)[C@@H](C)CC)[C@@H](C)O)C(C)C)C(C)C)C(C)C)C(C)C)[C@@H](C)CC)[C@@H](C)CC)C(C)C)[C@@H](C)CC)[C@@H](C)CC` (HELM PEPTIDE1{[CCCCCCCCCCCCCCCC(=O)[*:2]].R.W.K.I.F.K.K.I.E.K.V.G.Q.N.I.R.D.G.I.V.K.A.G.P.A.V.A.V.V.G.Q.A.A.T.I.[am]}$$$$V2.0), the IC50 with MCF7, with MDA-MB-231 and in the test on MX1 was below 8 µM throughout.

On to `CCCCCCCCCCCC(=O)N[C@@H](CCCNC(=N)N)C(=O)NCC(=O)N[C@@H](Cc1c[nH]c2ccccc12)C(=O)N[C@@H](Cc1ccccc1)C(=O)N[C@@H](CCCNC(=N)N)C(=O)N[C@@H](C)C(=O)N[C@@H](CCSC)C(=O)N[C@@H](CCCCNC(=O)CCCC(=O)NCCCO[C@@H]1O[C@H](CO)[C@@H](O)[C@H](O)[C@H]1O)C(=O)N[C@@H](CO)C(=O)N[C@H](C(=O)N[C@@H](C)C(=O)N[C@@H](CCCNC(=N)N)C(=O)N[C@@H](Cc1ccccc1)C(=O)N[C@H](C(=O)N[C@@H](C)C(=O)N[C@@H](CCCNC(=N)N)C(=O)N[C@@H](CCC(=O)O)C(=O)N[C@@H](CCCNC(=N)N)C(=O)N[C@@H](CC(C)C)C(=O)N[C@@H](CCCNC(=N)N)C(=O)N[C@@H](CCC(=O)O)C(=O)N[C@@H](Cc1cnc[nH]1)C(=O)N[C@@H](CC(C)C)C(N)=O)[C@@H](C)CC)[C@@H](C)CC` (Lauroyl-RGWFRAMK([Glutaryl-NH(CH2)3O(βDGlc)])SIARFIARERLREHL-NH2), for which the IC50 in the test with B16-F10 is 4.1 µM. Also, the deltaG in test [1] is -58.5 kcal/mol; in test [2] it was -87.4 kcal/mol; in the test filed under Homo sapiens, -27.5 kcal/mol.

Turning to `CCCCCCCCCCCC(=O)N[C@@H](CCCNC(=N)N)C(=O)NCC(=O)N[C@@H](Cc1c[nH]c2ccccc12)C(=O)N[C@@H](Cc1ccccc1)C(=O)N[C@@H](CCCNC(=N)N)C(=O)N[C@@H](C)C(=O)N[C@@H](CCSC)C(=O)N[C@@H](CCCNC(=N)N)C(=O)N[C@@H](CO)C(=O)N[C@H](C(=O)N[C@@H](C)C(=O)N[C@@H](CCCNC(=N)N)C(=O)N[C@@H](Cc1ccccc1)C(=O)N[C@@H](CC(C)C)C(=O)N[C@@H](C)C(=O)N[C@@H](CCCCNC(=O)CCCC(=O)NCCCO[C@@H]1O[C@H](CO)[C@@H](O)[C@H](O)[C@H]1O)C(=O)N[C@@H](CCC(=O)O)C(=O)N[C@@H](CCCNC(=N)N)C(=O)N[C@@H](CC(C)C)C(=O)N[C@@H](CCCNC(=N)N)C(=O)N[C@@H](CCC(=O)O)C(=O)N[C@@H](Cc1cnc[nH]1)C(=O)N[C@@H](CC(C)C)C(N)=O)[C@@H](C)CC` (Lauroyl-RGWFRAMRSIARFLAK([Glutaryl-NH(CH2)3O(βDGlc)])ERLREHL-NH2), the IC50 in the test with B16-F10 came out at 3.8 µM. In addition, the deltaG in test [1] is -61 kcal/mol; in test [2] it was -79.9 kcal/mol; in the test listed under Homo sapiens it was -87.9 kcal/mol.

These data come from ChEMBL document CHEMBL5036332, “Glucose-Lipopeptide Conjugates Reveal the Role of Glucose Modification Position in Complexation and the Potential of Malignant Melanoma Therapy” (J Med Chem, 2021).
